# In US8802597B2, “Herbicidal pyrimidines” (E I du Pont de Nemours and Company, priority 2003, dated 2014):
# How the values were obtained:
# Format in all cases: in vivo
# [1] = test system: early watergrass (Echinochloa oryzoides); assay: Test E flooded paddy water application; details: Flood, 21 days, scale 0 to 100 (0 no effect, 100 complete control)
# Text: (§1) Three plastic pots (ca. 16-cm diameter) per rate were partially filled with sterilized Tama silt loam soil comprising a 35:50:15 ratio of sand, silt and clay and 2.6% organic matter. Separate plantings for each of the three pots were as follows. Seeds from the U.S. of ducksalad (Heteranthera limosa), smallflower umbrella sedge (Cyperus difformis) and purple redstem (Ammannia coccinea), were planted into one 16-cm pot for each rate. Seeds from the U.S. of rice flatsedge (Cyperus iria), bearded (brdd.) sprangletop (Leptochloa fusca ssp. fascicularis), one stand of 9 or 10 water seeded rice seedlings (Oryza sativa cv. ‘Japonica-M202’), and one stand of 6 transplanted rice seedlings (Oryza sativa cv. ‘Japonica-M202’) were planted into one 16-cm pot for each rate. Seeds from the U.S. of barnyardgrass (Echinochloa crus-galli), late watergrass (Echinochloa oryzicola), early watergrass (Echinochloa oryzoides) and junglerice (Echinochloa colona) were planted into one 16-cm pot for each rate. Plantings were sequential so that crop and weed species were at the 2.0 to 2.5-leaf stage at time of treatment.
# (§2) Potted plants were grown in a greenhouse with day/night temperature settings of 29.5/26.7° C., and supplemental balanced lighting was provided to maintain a 16-hour photoperiod. Test pots were maintained in the greenhouse until test completion.
# (§3) At time of treatment, test pots were flooded to 3 cm above the soil surface, treated by application of test compounds directly to the paddy water, and then maintained at that water depth for the duration of the test. Effects of treatments on rice and weeds were visually evaluated by comparison to untreated controls after 21 days. Plant response ratings, summarized in Table E, are based on a scale of 0 to 100 where 0 is no effect and 100 is complete control. A dash (-) response means no test result.
# [2] = test system: water seeded rice seedlings (Oryza sativa cv. ‘Japonica-M202’); assay: Test E flooded paddy water application; details: Flood, 21 days, scale 0 to 100 (0 no effect, 100 complete control)
# Text: as §1, §2, §3
# [3] = test system: rice flatsedge (Cyperus iria); assay: Test E flooded paddy water application; details: Flood, 21 days, scale 0 to 100 (0 no effect, 100 complete control)
# Text: as §1, §2, §3
# [4] = test system: smallflower umbrella sedge (Cyperus difformis); assay: Test E flooded paddy water application; details: Flood, 21 days, scale 0 to 100 (0 no effect, 100 complete control)
# Text: as §1, §2, §3
# [5] = test system: late watergrass (Echinochloa oryzicola); assay: Test E flooded paddy water application; details: Flood, 21 days, scale 0 to 100 (0 no effect, 100 complete control)
# Text: as §1, §2, §3
# [6] = test system: ducksalad (Heteranthera limosa); assay: Test E flooded paddy water application; details: Flood, 21 days, scale 0 to 100 (0 no effect, 100 complete control)
# Text: as §1, §2, §3
# [7] = test system: purple redstem (Ammannia coccinea); assay: Test E flooded paddy water application; details: Flood, 21 days, scale 0 to 100 (0 no effect, 100 complete control)
# Text: as §1, §2, §3
# [8] = test system: bearded (brdd.) sprangletop (Leptochloa fusca ssp. fascicularis); assay: Test E flooded paddy water application; details: Flood, 21 days, scale 0 to 100 (0 no effect, 100 complete control)
# Text: as §1, §2, §3
# [9] = test system: junglerice (Echinochloa colona); assay: Test E flooded paddy water application; details: Flood, 21 days, scale 0 to 100 (0 no effect, 100 complete control)
# Text: as §1, §2, §3
# [10] = test system: transplanted rice seedlings (Oryza sativa cv. ‘Japonica-M202’); assay: Test E flooded paddy water application; details: Flood, 21 days, scale 0 to 100 (0 no effect, 100 complete control)
# Text: as §1, §2, §3
# [11] = test system: barnyardgrass (Echinochloa crus-galli); assay: Test E flooded paddy water application; details: Flood, 21 days, scale 0 to 100 (0 no effect, 100 complete control)
# Text: as §1, §2, §3
# [12] = test system: morningglory (Ipomoea spp.); assay: Test A pre/postemergence
# Procedure, shortened: (§4)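 Visual injury scored 0–100 (0 = no effect, 100 = complete control) against untreated controls after about ten days in the greenhouse. Compounds, formulated in non-phytotoxic solvent plus surfactant, were applied preemergence as a directed soil spray and postemergence at the 1- to 2-leaf stage (2–10 cm).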
# [13] = test system: giant foxtail (Setaria faberi); assay: Test A pre/postemergence
# Procedure, shortened: as §4
# [14] = test system: redroot pigweed (Amaranthus retroflexus); assay: Test A pre/postemergence
# Procedure, shortened: as §4
# [15] = test system: crabgrass (Digitaria sanguinalis); assay: Test A pre/postemergence
# Procedure, shortened: as §4
# [16] = test system: velvetleaf (Abutilon theophrasti); assay: Test A pre/postemergence
# Procedure, shortened: as §4
# [17] = test system: barnyardgrass (Echinochloa crus-galli); assay: Test A pre/postemergence
# Procedure, shortened: as §4
# [18] = Postemergence, 125 g ai/ha, 0 to 100 scale (0 no effect, 100 complete control)
# [19] = Postemergence, 500 g ai/ha, 0 to 100 scale (0 no effect, 100 complete control)
# [20] = Preemergence, 125 g ai/ha, 0 to 100 scale where 0 is no effect and 100 is complete control, approximately ten days
# [21] = Preemergence, 500 g ai/ha, 0 to 100 scale where 0 is no effect and 100 is complete control, approximately ten days
structure (smiles),measurement,setting,value
CCOC(=O)c1nc(-c2ccc(OC)cc2)nc(N)c1Cl [Compound 98],"Watergrass, Early plant response rating",[1]; 32 g ai/ha,0
same,"Watergrass, Early plant response rating",[1]; 64 g ai/ha,0
same,"Watergrass, Early plant response rating",[1]; 125 g ai/ha,0
same,"Watergrass, Early plant response rating",[1]; 250 g ai/ha,0
same,"Plant response rating, Watergrass, Early",[1]; 16 g ai/ha,0
same,"Rice, Water Seeded plant response rating",[2]; 32 g ai/ha,0
same,"Rice, Water Seeded plant response rating",[2]; 64 g ai/ha,0
same,"Rice, Water Seeded plant response rating",[2]; 125 g ai/ha,0
same,"Rice, Water Seeded plant response rating",[2]; 250 g ai/ha,0
same,"Plant response rating, Rice, Water Seeded",[2]; 16 g ai/ha,0
same,"Flatsedge, Rice plant response rating",[3]; 32 g ai/ha,80
same,"Flatsedge, Rice plant response rating",[3]; 64 g ai/ha,100
same,"Flatsedge, Rice plant response rating",[3]; 125 g ai/ha,100
same,"Flatsedge, Rice plant response rating",[3]; 250 g ai/ha,100
same,"Plant response rating, Flatsedge, Rice",[3]; 16 g ai/ha,80
same,"Sedge, Umbrella plant response rating",[4]; 32 g ai/ha,60
same,"Sedge, Umbrella plant response rating",[4]; 64 g ai/ha,60
same,"Sedge, Umbrella plant response rating",[4]; 125 g ai/ha,60
same,"Sedge, Umbrella plant response rating",[4]; 250 g ai/ha,60
same,"Plant response rating, Sedge, Umbrella",[4]; 16 g ai/ha,60
same,"Watergrass, Late plant response rating",[5]; 32 g ai/ha,0
same,"Watergrass, Late plant response rating",[5]; 64 g ai/ha,0
same,"Watergrass, Late plant response rating",[5]; 125 g ai/ha,0
same,"Watergrass, Late plant response rating",[5]; 250 g ai/ha,0
same,"Plant response rating, Watergrass, Late",[5]; 16 g ai/ha,0
same,Ducksalad plant response rating,[6]; 32 g ai/ha,100
same,Ducksalad plant response rating,[6]; 64 g ai/ha,100
same,Ducksalad plant response rating,[6]; 125 g ai/ha,100
same,Ducksalad plant response rating,[6]; 250 g ai/ha,100
same,"Plant response rating, Ducksalad",[6]; 16 g ai/ha,0
same,Redstem plant response rating,[7]; 32 g ai/ha,0
same,Redstem plant response rating,[7]; 64 g ai/ha,0
same,Redstem plant response rating,[7]; 125 g ai/ha,40
same,Redstem plant response rating,[7]; 250 g ai/ha,40
same,"Plant response rating, Redstem",[7]; 16 g ai/ha,0
same,"Sprangletop, Brdd. plant response rating",[8]; 32 g ai/ha,0
same,"Sprangletop, Brdd. plant response rating",[8]; 64 g ai/ha,0
same,"Sprangletop, Brdd. plant response rating",[8]; 125 g ai/ha,0
same,"Sprangletop, Brdd. plant response rating",[8]; 250 g ai/ha,0
same,"Plant response rating, Sprangletop, Brdd.",[8]; 16 g ai/ha,0
same,Junglerice plant response rating,[9]; 32 g ai/ha,0
same,Junglerice plant response rating,[9]; 64 g ai/ha,0
same,Junglerice plant response rating,[9]; 125 g ai/ha,0
same,Junglerice plant response rating,[9]; 250 g ai/ha,0
same,"Plant response rating, Junglerice",[9]; 16 g ai/ha,0
same,"Rice, Transplanted plant response rating",[10]; 32 g ai/ha,0
same,"Rice, Transplanted plant response rating",[10]; 64 g ai/ha,0
same,"Rice, Transplanted plant response rating",[10]; 125 g ai/ha,0
same,"Rice, Transplanted plant response rating",[10]; 250 g ai/ha,0
same,"Plant response rating, Rice, Transplanted",[10]; 16 g ai/ha,0
same,Barnyardgrass plant response rating,[11]; 32 g ai/ha,0
same,Barnyardgrass plant response rating,[11]; 64 g ai/ha,0
same,Barnyardgrass plant response rating,[11]; 125 g ai/ha,0
same,Barnyardgrass plant response rating,[11]; 250 g ai/ha,0
same,"Plant response rating, Barnyardgrass",[11]; 16 g ai/ha,0
same,"Plant response rating, Morningglory",[12]; [18],0
same,"Plant response rating, Morningglory",[12]; [19],0
same,"Plant response rating, Morningglory",[12]; [20],0
same,"Plant response rating, Morningglory",[12]; [21],0
same,"Plant response rating, Foxtail, Giant",[13]; [18],0
same,"Plant response rating, Foxtail, Giant",[13]; [19],15
same,"Plant response rating, Foxtail, Giant",[13]; [20],0
same,"Plant response rating, Foxtail, Giant",[13]; [21],0
same,"Plant response rating, Pigweed",[14]; [18],5
same,"Plant response rating, Pigweed",[14]; [19],15
same,"Plant response rating, Pigweed",[14]; [20],0
same,"Plant response rating, Pigweed",[14]; [21],0
same,"Plant response rating, Crabgrass",[15]; [18],0
same,"Plant response rating, Crabgrass",[15]; [19],10
same,"Plant response rating, Crabgrass",[15]; [20],0
same,"Plant response rating, Crabgrass",[15]; [21],15
same,"Plant response rating, Velvetleaf",[16]; [18],35
same,"Plant response rating, Velvetleaf",[16]; [19],45
same,"Plant response rating, Velvetleaf",[16]; [20],0
same,"Plant response rating, Velvetleaf",[16]; [21],5
same,"Plant response rating, Barnyardgrass",[17]; [18],0
same,"Plant response rating, Barnyardgrass",[17]; [19],20
same,"Plant response rating, Barnyardgrass",[17]; [20],0
same,"Plant response rating, Barnyardgrass",[17]; [21],0
